Measured values taken from patent US9170257B2 (priority 2012, dated 2015).
Where two headings read alike, the source gives them in different places.

Experiments:
[1] = Plasma pharmacokinetics of curcumin and THC during and after intravenous infusion of liposomal curcumin; type: in vivo, Beagle dogs
Method: (§1) The results and analysis for the study are presented for intravenous infusion dosing of a total dose of 10 mg/kg infused over a period of either 2 or 8 hours. Plasma levels of curcumin and its metabolite, THC were measured at timed intervals post-dosing.
For the 2 hour infusion, blood samples were taken at predose and 0.25, 0.5, 1.5 and at 2 hours during infusion and at 15 minutes post-infusion. For the 8 hour infusion, blood samples were taken at predose and 0.25, 0.5, 1.5, […] and at 8 hours during infusion and at 15 minutes post-infusion.
(§2) Bioanalysis was performed on two sets of samples, one set that was treated with phosphoric acid and one set that was not treated with phosphoric acid. […] Values that were below the limit of quantification were assigned a value of 0.
Plasma concentration vs. time profiles were analyzed using (unless otherwise stated) the data from 4 dogs. Plasma profiles for the test articles are presented as the mean data±SE of 4 dogs. Average plasma concentrations were used to perform the PK analysis. Plasma concentration vs. time profiles were analyzed and the PK parameters estimated using WinNonlin Version 5.2.1 employing the intravenous infusion model with first order elimination. Unless stated otherwise, the plasma concentration-time profiles for the test articles are presented as the mean data±SE of 4 dogs.

[2] = Bench stability in Phase 1 human plasma samples; type: in vitro ADME; conditions: human plasma with Na-phosphate, room temperature, a couple of hours
Method: After the addition of 50 μl 5% H3PO4 to 950 ml plasma the pH was 4.4.

[3] = Plasma, urine and bile levels of curcumin and THC 15 minutes post-infusion; type: in vivo, Beagle dogs; conditions: for Plasma level / concentration at 15 min: mean±SE; for concentration at 15 min / Kp: both sexes, dog, in vivo, 10 mg/kg; for concentration at 15 min: Beagle; for Kp: beagle
Method: as §1, §2
Fifteen minutes following either the 2 hour or 8 hour infusion, blood, urine and bile samples were taken, prior to the dogs being necropsied and organs removed for the isolation of tissues. Multiple samples of tissue weighing approximately 1 gram were removed and snap frozen in the presence or absence of phosphoric acid (H3PO4). For all tissue samples, the levels of curcumin and THC were determined using a method developed by the Bioanalytical Department at Nucro-Technics. […] Values that were below the limit of quantification were assigned a value of 0. […] Tissue distribution data was analyzed using, unless stated, the data from 4 dogs and are presented as the mean±standard error (S.E.).

[4] = both sexes, Beagle, dog, in vivo, 10 mg/kg, 1.25 mg/kg/hr, mean±SE, read-out: [Plasma + PO4]
[5] = both sexes, Beagle, dog, in vivo, 10 mg/kg, 1.25 mg/kg/hr, mean±SE, read-out: [Plasma]
[6] = both sexes, Beagle, dog, in vivo, 10 mg/kg, 5 mg/kg/hr, mean±SE, read-out: [Plasma + PO4]
[7] = both sexes, Beagle, dog, in vivo, 10 mg/kg, 5 mg/kg/hr, mean±SE, read-out: [Plasma]

COc1cc(CCC(=O)CC(=O)CCc2ccc(O)c(OC)c2)ccc1O [THC, tetrahydrocurcumin]
Ke ([1]; 2 hour i.v. infusion, total dose 10 mg/kg, fitted): 1.4 h⁻¹ | ratio of THC to curcumin based on AUC ([1]; 2 hour infusion): 9.6 | ratio of THC to curcumin based on AUC ([1]; 8 hour infusion): 6.3 | Plasma THC levels higher than curcumin ([1]; at both infusion rates (2 and 8 hours)): 6.3-9.6 fold | concentration at 15 min [1, 4]: 59 ± 24 ng/mL | concentration at 15 min [1, 5]: 72 ± 15 ng/mL | concentration at 30 min [1, 4]: 121 ± 28 ng/mL | concentration at 30 min [1, 5]: 63 ± 15 ng/mL | concentration at 90 min [1, 4]: 293 ± 73 ng/mL | concentration at 90 min [1, 5]: 64 ± 14 ng/mL | concentration at 2 hr [1, 4]: 226 ± 64 ng/mL | concentration at 2 hr [1, 5]: 68 ± 11 ng/mL | concentration at 4 hr [1, 4]: 193 ± 127 ng/mL | concentration at 4 hr [1, 5]: 77 ± 8 ng/mL | concentration at 6 hr [1, 4]: 64 ± 10 ng/mL | concentration at 6 hr [1, 5]: 0 ng/mL | concentration at 8 hr [1, 4]: 62 ± 26 ng/mL | concentration at 8 hr [1, 5]: 67 ± 29 ng/mL | concentration at 15 min [1, 6]: 284 ± 89 ng/mL | concentration at 15 min [1, 7]: 483 ± 50 ng/mL | concentration at 30 min [1, 6]: 1120 ± 318 ng/mL | concentration at 30 min [1, 7]: 566 ± 77 ng/mL | concentration at 90 min [1, 6]: 2350 ± 441 ng/mL | concentration at 90 min [1, 7]: 891 ± 238 ng/mL | concentration at 2 hr [1, 7]: 454 ± 79 ng/mL | AUC ([1]; both sexes, Beagle, dog, in vivo, iv, 10 mg/kg, 2 hr infusion + phosphate, AUC to 15 min post-infusion, read-out: AUC): 3800 ng·h/mL | AUC ([1]; both sexes, Beagle, dog, in vivo, iv, 10 mg/kg, 8 hr infusion + Phosphate, AUC to 15 min post-infusion, read-out: AUC): 1170 ng·h/mL | AUC ([1]; both sexes, Beagle, dog, in vivo, iv, 10 mg/kg, 8 hr infusion, 10 mg/kg, plasma without phosphoric acid, AUC to 15 min post-infusion, read-out: AUC): 411 ng·h/mL | Cmax ([1]; both sexes, Beagle, dog, in vivo, iv, 10 mg/kg, 8 hr infusion, plasma without phosphoric acid, observed, read-out: Cmax): 77 ng/mL | concentration at 2 h ([1]; both sexes, beagle, dog, in vivo, 10 mg/kg, 5 mg/kg/hr, 2 hr (end of infusion), mean±SE, read-out: [Plasma + PO4]): 2980 ± 852 ng/mL | AUC ([1]; both sexes, beagle, dog, in vivo, iv, 10 mg/kg, 2 hour i.v. infusion, total dose 10 mg/kg, fitted, first-order elimination infusion model, read-out: AUC (estimated PK parameter)): 5180 ng·h/mL | Cmax ([1]; both sexes, beagle, dog, in vivo, iv, 10 mg/kg, 2 hour i.v. infusion, total dose 10 mg/kg, fitted, first-order elimination infusion model, read-out: Cmax (estimated PK parameter)): 2430 ng/mL | AUC ([1]; both sexes, beagle, dog, in vivo, iv, 10 mg/kg, 2 hour infusion, + phosphoric acid, read-out: calculated AUC (observed)): 3800 ng·h/mL | Cmax ([1]; both sexes, beagle, dog, in vivo, iv, 10 mg/kg, 2 hr infusion + phosphate, observed, read-out: Cmax): 2980 ng/mL | AUC ([1]; both sexes, beagle, dog, in vivo, iv, 10 mg/kg, 2 hr infusion, 10 mg/kg, plasma without phosphoric acid, AUC to 15 min post-infusion, read-out: AUC): 1320 ng·h/mL | Cmax ([1]; both sexes, beagle, dog, in vivo, iv, 10 mg/kg, 2 hr infusion, plasma without phosphoric acid, observed, read-out: Cmax): 891 ng/mL | Cmax ([1]; both sexes, beagle, dog, in vivo, iv, 10 mg/kg, 8 hr infusion + Phosphate, observed, read-out: Cmax): 293 ng/mL | MRT ([1]; both sexes, beagle, dog, in vivo, iv, 2 hour i.v. infusion, total dose 10 mg/kg, fitted, read-out: MRT): 42 min | half-life ([1]; both sexes, beagle, dog, in vivo, iv, 2 hour i.v. infusion, total dose 10 mg/kg, fitted, read-out: t1/2(e) (converted)): 30 min | ratio of plasma THC to curcumin ([1]; two infusion rates): 6.3-9.6 | bench stability [2]: minimal | Plasma level ([3]; 15 min after 2 hour infusion, + H3PO4): 1167 ± 379 ng/mL | Plasma level ([3]; 15 min after 8 hour infusion, no H3PO4): 20 ± 4^2 ng/mL | concentration at 15 min ([3]; 15 min after 2 hour infusion, + H3PO4, read-out: Bile level): 391 ± 197 ng/mL | concentration at 15 min ([3]; 15 min after 2 hour infusion, + H3PO4, read-out: Urine level): 3590 ± 1080 ng/mL | concentration at 15 min ([3]; 15 min after 2 hour infusion, no H3PO4, read-out: Bile level): 187 ± 74 ng/mL | concentration at 15 min ([3]; 15 min after 2 hour infusion, no H3PO4, read-out: Plasma level): 38 ± 4 ng/mL | concentration at 15 min ([3]; 15 min after 2 hour infusion, no H3PO4, read-out: Urine level): 6420 ± 1450 ng/mL | concentration at 15 min ([3]; 15 min after 8 hour infusion, + H3PO4, read-out: Bile level): 168 ± 53 ng/mL | concentration at 15 min ([3]; 15 min after 8 hour infusion, + H3PO4, read-out: Plasma level): 142 ± 122 ng/mL | concentration at 15 min ([3]; 15 min after 8 hour infusion, + H3PO4, read-out: Urine level): 621 ± 206 ng/mL | concentration at 15 min ([3]; 15 min after 8 hour infusion, no H3PO4, read-out: Bile level): 84 ± 12 ng/mL | concentration at 15 min ([3]; 15 min after 8 hour infusion, no H3PO4, read-out: Urine level): 2450 ± 84 ng/mL | Kp ([3]; higher infusion rate (5 mg/kg/hr), read-out: bile to plasma concentration ratio): 1.2 | Kp ([3]; higher infusion rate (5 mg/kg/hr), read-out: urine to plasma concentration ratio): 4.4 | Kp ([3]; low infusion rate (1.25 mg/kg/hr), read-out: bile to plasma concentration ratio): 0.3 | Kp ([3]; low infusion rate (1.25 mg/kg/hr), read-out: urine to plasma concentration ratio): 3.1
